Test results taken from paper PMC10535717, “A Novel Antimicrobial Peptide, Dermaseptin-SS1, with Anti-Proliferative Activity, Isolated from the Skin Secretion of Phyllomedusa tarsius” (Molecules, 2023).
Ends that are not written are not given here.

Key:
[1] = Log P of the amino acid as quoted in the discussion; source and method not given; cited from earlier work
From the text: The predicted information from HeliQuest referred to the design of analogues (Figure 2). The first modification step was designed to increase hydrophobic characteristics and decrease helicity. […] The ...

[2] = test system: A. baumannii ATCC BAA 747; assay type: cell-based, Acinetobacter baumannii
From the text: (§1) The anti-planktonic microorganism efficacy of the peptides was investigated via minimal bacterial inhibitory concentration (MIC) and minimal bactericidal concentration (MBC) assays. Eight types of microorganisms, including Gram-positive bacteria, Staphylococcus aureus (ATCC CRM 6538), Methicillin-resistant Staphylococcus aureus (NCTC 12493), and Enterococcus faecium (NCTC 12697), Gram-negative bacteria, Escherichia coli (ATCC CRM 8739, ATCC BAA 2340, ATCC 13846, ATCC BAA 2469, and ATCC BAA 2471), Klebsiella pneumoniae (ATCC 43816), Pseudomonas aeruginosa (ATCC CRM 9027) and Acinetobacter baumannii (ATCC BAA 747) and a yeast, Candida albicans (ATCC CRM 10231) were utilized to test the antimicrobial activity of peptides.
(§2) For the MIC assay, microorganisms were inoculated with peptides in a 96-well plate. Nutrient broth (NB) was applied for MRSA, E. coli, K. pneumoniae, and P. aeruginosa, tryptic soy broth (TSB) was applied for S. aureus, E. faecium, and A. baumannii, and yeast extract peptone dextrose broth (YPD-B) was used for C. albicans. The microorganisms were cultured (bacteria: 37 °C; yeast: 26 °C) overnight at 120 rpm and subcultured to achieve the logarithmic growth stage (5 × 10^5 CFU/mL), as confirmed by viable cell counts. After that, 99 µL of the subculture and 1 µL of the peptide were added to the 96-well plate. The final concentration of peptides ranged from 128 to 1 µmol/L (µM) using a 2-fold dilution. In addition, four other groups were established simultaneously at the commencement of the test: a growth control group, a vehicle control group (Dimethyl Sulphoxide, DMSO), a positive control group utilizing Norfloxacin at a concentration of 2 mg/mL for bacteria, and Amphotericin B. at a concentration of 1 mg/mL for yeast, and a blank control group (sterile NB/TSB/YPD-B). The MIC values were measured after overnight incubation at 37/26 °C. The optical density (OD) values were analysed at 550 nm using a Synergy HT plate reader (BioTek, Washington, USA), and were calculated using the following equation:(1) Cell Viability %=[(As−A0)/(Ag−A0)]×100% where As is the absorbance value of the sample group, A0 is the average of the absorbance values of the blank control, and Ag is the average of the absorbance values of the growth control. For the MBC assay, 10 µL of the inhibited cultures on the 96-well plate were transferred onto a corresponding medium agar plate and incubated overnight at 37/26 °C to measure MBC values. The results were obtained from three independent assays.

horse erythrocytes = assay: Haemolysis activity; assay type: cell-based; settings: concentration causing 50% haemolysis; 4% (v/v) horse red blood cells in PBS, peptide 128 to 1 µM, 37 °C 2 h, OD 570 nm, 1% Triton X-100 positive control, three separate assays
Protocol: To start, fresh defibrinated horse blood (TCS Biosciences Ltd., Buckingham, UK) was washed with PBS solution to obtain a clear supernatant. Then, a 4% (v/v) suspension of red blood cells was made in PBS. After this, 100 µL of the peptide solutions were incubated with 100 µL of the suspension of red blood cells in 2 mL centrifuge tubes at 37 °C for 2 h. The ultimate concentration of peptides ranged from 128 to 1 µM obtained by a 2-fold dilution. Also, two other groups were set simultaneously, including a positive control group of 1% Triton X-100 and a blank control group of phosphate-buffered saline (PBS). After incubation and centrifugation at 900× g for 10 min, a volume of 100 µL of the resulting supernatant from each specimen was carefully transferred to individual wells of the 96-well plate. Subsequently, the OD values were analysed using a Synergy HT plate reader (BioTek, USA) at a wavelength of 570 nm using the following equation:(2) Haemolysis Activity %=[(As−A0)/(Ap−A0)]×100% where As is the absorbance value of the supernatant of the peptide group, A0 is the average absorbance value of the blank control, and Ap is the average absorbance value of the positive control. The data were obtained from three separate assays.

[3] = test system: P. aeruginosa ATCC CRM 9027; assay type: cell-based, Pseudomonas aeruginosa
From the text: as §1, §2

E. coli ATCC BAA 2469 = assay type: cell-based, Escherichia coli; settings: NDM-1 strain, overnight 37 °C, three independent assays; for MIC: NB, 5 × 10^5 CFU/mL, OD 550 nm; for MBC: agar plate
From the text: as §1, §2

E. coli ATCC CRM 8739 = assay type: cell-based, Escherichia coli
From the text: as §1, §2

E. coli NCTC 13846 = assay type: cell-based, Escherichia coli
From the text: as §1, §2

E. coli ATCC BAA 2471 = assay type: cell-based, Escherichia coli; settings: NDM-1 strain, overnight 37 °C, three independent assays; for MIC: NB, 5 × 10^5 CFU/mL, OD 550 nm; for MBC: agar plate
From the text: as §1, §2

E. coli ATCC BAA 2340 = assay type: cell-based, Escherichia coli; settings: KPC strain, overnight 37 °C, three independent assays; for MIC: NB, 5 × 10^5 CFU/mL, OD 550 nm; for MBC: agar plate
From the text: as §1, §2

K. pneumoniae ATCC 43816 = assay type: cell-based, Klebsiella pneumoniae
From the text: as §1, §2

E. faecalis NCTC 12697 = assay type: cell-based
[4] = test system: C. albicans ATCC CRM 10231; assay type: cell-based, Candida albicans; settings: for MBC / MIC: ATCC CRM 10231
From the text: as §1, §2

S. aureus ATCC CRM 6538 = assay type: cell-based, Staphylococcus aureus
From the text: as §1, §2

MRSA NCTC 12493 = assay type: cell-based, Methicillin-resistant Staphylococcus aureus
From the text: as §1, §2

Gram-positive bacteria = assay: Geometric mean of MICs and therapeutic index, Gram +; assay type: cell-based; settings: geometric mean of MICs of Table 3; 256.00 μM used where no activity at 128.00 μM
From the text: as §1
(§3) For the MIC assay, microorganisms were inoculated with peptides in a 96-well plate. […] The MIC values were measured after overnight incubation at 37/26 °C. The optical density (OD) values were analysed at 550 nm using a Synergy HT plate reader (BioTek, Washington, USA), and were calculated using the following equation:(1) Cell Viability %=[(As−A0)/(Ag−A0)]×100% where As is the absorbance value of the sample group, A0 is the average of the absorbance values of the blank control, and Ag is the average of the absorbance values of the growth control. […]

Gram-negative bacteria = assay: Geometric mean of MICs and therapeutic index, Gram −; assay type: cell-based; settings: geometric mean of MICs of Table 3; 256.00 μM used where no activity at 128.00 μM
From the text: as §1, §3

Molecule	Log P [1]	MBC [2] [µM]	MIC [2] [µM]	HC50 (horse erythrocytes)	MBC [3] [µM]	MIC [3] [µM]	MBC (E. coli ATCC CRM 8739) [µM]	MIC (E. coli ATCC CRM 8739) [µM]	MBC (K. pneumoniae ATCC 43816) [µM]	MIC (K. pneumoniae ATCC 43816) [µM]	MBC (E. faecalis NCTC 12697) [µM]	MIC (E. faecalis NCTC 12697) [µM]	MBC [4] [µM]	MIC [4] [µM]	MBC (S. aureus ATCC CRM 6538) [µM]	MIC (S. aureus ATCC CRM 6538) [µM]	MBC (MRSA NCTC 12493) [µM]	MIC (MRSA NCTC 12493) [µM]	other results
C[C@H](N)C(=O)O [Alanine]	3.54	–	–	–	–	–	–	–	–	–	–	–	–	–	–	–	–	–	–
NC(=O)CC[C@H](N)C(=O)O [Glutamine]	3.19	–	–	–	–	–	–	–	–	–	–	–	–	–	–	–	–	–	–
NCC(=O)O [Glycine]	3.20	–	–	–	–	–	–	–	–	–	–	–	–	–	–	–	–	–	–
CC(C)[C@H](N)C(=O)O [Valine]	4.42	–	–	–	–	–	–	–	–	–	–	–	–	–	–	–	–	–	–
N[C@@H](CO)C(=O)O [serine]	2.66	–	–	–	–	–	–	–	–	–	–	–	–	–	–	–	–	–	–
ALWKKILKNAGKAVLNEINQIVQ-NH2 [Peptide 14V5K]	–	8	8	256.00	8	8	2	2	2	2	>128	>128	8	8	4	4	4	4	MIC (E. coli ATCC BAA 2469): 1 µM; MBC (E. coli ATCC BAA 2469): 2 µM; MBC (E. coli NCTC 13846): 4 µM; MIC (E. coli NCTC 13846): 4 µM; MIC (E. coli ATCC BAA 2471): 1 µM; MBC (E. coli ATCC BAA 2471): 2 µM; MIC (E. coli ATCC BAA 2340): 2 µM; MBC (E. coli ATCC BAA 2340): 2 µM; time to eradicate bacteria: < 10 min
ALWKSILKNAGKAALNEINQIVQ-NH2 [SS1]	–	16	16	256.00 µM	32	32	4	2	16	16	>128	>128	>128	>128	8	8	>128	>128	MIC (E. coli ATCC BAA 2469): 4 µM; MBC (E. coli ATCC BAA 2469): 4 µM; MBC (E. coli NCTC 13846): 8 µM; MIC (E. coli NCTC 13846): 8 µM; MIC (E. coli ATCC BAA 2471): 8 µM; MBC (E. coli ATCC BAA 2471): 8 µM; MIC (E. coli ATCC BAA 2340): 4 µM; MBC (E. coli ATCC BAA 2340): 4 µM
ALWKSILKNAGKAGLNEINQIVQ-NH2 [Peptide 14G]	–	>128	>128	256.00	> 128	32	16	16	>128	>128	>128	>128	>128	>128	>128	>128	>128	>128	–
ALWKSILKNAGKALNEINQIVQ-NH2 [Peptide L14]	–	> 128	32	256.00	> 128	16	4	4	16	16	>128	>128	>128	>128	>128	>128	32	32	–
ALWKSILKNAGKAVLNEINQIV-NH2 [Peptide 14VL23]	–	>128	>128	256.00	>128	>128	16	8	4	4	>128	>128	>128	>128	>128	>128	>128	>128	–
ALWKSILKNAGKAVLNEINQIVQ-NH2 [Peptide 14V]	–	4	4	256.00	> 128	16	2	2	8	8	>128	>128	>128	>128	4	4	8	8	–
ALWKSILKNVGKVLNEINQIVQ-NH2 [Peptide L2V]	–	4	4	256.00	>128	>128	>128	>128	> 128	8	>128	>128	>128	>128	>128	>128	4	4	GM Gram + (Gram-positive bacteria): 64.00 µM; GM Gram − (Gram-negative bacteria): 38.05 µM; GM Yeast ([4]; geometric mean of MICs of Table 3, 256.00 μM used where no activity at 128.00 μM): 256.00 µM
